{"source": "patent US12016312B2", "about": "“Animal models, screening methods, and treatment methods for intraocular diseases or disorders” (ZHUHAI QIWEI BIO-TECHNOLOGY LTD., priority 2018, dated 2024)", "key": {"Bacillus megaterium [1]": {"test_system": "Bacillus megaterium", "assay": "Antibiotic sensitivity screening test in petri dishes (MIC method)", "assay_type": "cell-based", "settings": "10^-1 to 10^-5 mg/mL", "description": "(§1) The bacterial culture medium (HuanKai Microbial, Guangzhou, China) containing peptone 5 g, beef extract 3 g, NaCl 5 g, agar 15 g, and MnSO4 5 mg in 1 L ddH2O (pH=7.2) was prepared in conical flask (Drtech, Guangzhou, China) and was sterilized in the autoclave (HIRAYAMA, HEV-50, Japan) at 121° C. for 30 min. Bacillus megaterium (total 1*10^7 per culture) was cultured in the incubator (HettCube 200, Germany) at 37° C. for 24 h.\nTo test whether antibiotics can control the growth of Bacillus megaterium in vitro and in vivo, we first carried out an antibiotic sensitivity screening test in petri dishes which were made in example 1. The sensitivity of Bacillus megaterium to several major antimicrobial agents including ampicillin, vancomycin, neomycin, metronidazole and tetracycline were examined using the minimum inhibitory concentration (MIC) method. Ampicillin, vancomycin, neomycin, metronidazole, and tetracycline (purchased from Sigma, USA) at various concentrations (10^−1, 10^−2, 10^−3, 10^−4, 10^−5 mg/mL) were added into cooled medium.\nas §1, with “Bacillus megaterium (total 1*10^7 per culture) was cultured in the incubator (HettCube 200, Germany) at 37° C. for 24 h.” left out"}, "Bacillus megaterium [2]": {"test_system": "Bacillus megaterium", "assay": "Bacillus megaterium subretinal inoculation model, drusenoid pathology in monkey retinal tissues", "assay_type": "in vivo, Macaca fascicularis", "settings": "intravitreous, 0.5 mg, one injection on Day 2 post bacterial inoculation; macaque", "description": "The macaques were sedated by intramuscular injection of a mixture of tiletamine hydrochloride (2.5 mg/kg) and xolazepam hydrochloride (2.5 mg/kg). After instilling topical anesthesia (0.5% proparacaine hydrochloride), the eyes were immediately visualized in vivo using a light microscope. The pupils were then dilated with 0.5% tropicamide and 0.5% phenylephrine to obtain the fundus photographs. […] Under microscopic monitoring, 20 μl of PBS (with or without bacteria) was injected into the subretinal space between photo receptors and RPE (retinal pigment epithelium), using a NanoFil Syringe Nanofil-100 for Microinjection (World Precision Instruments, USA). All procedures were done using sterile instruments. The macaque was euthanized 47 days post inoculation and the eyeball was enucleated for histological analyses. The eyeballs were fixed in 4% paraformaldehyde for 48 h and then embedded in paraffin. Sections were cut on a microtome at 6 μm and stained with H&E.\nWe examined whether subretinal inoculation of AH and VH cultures, as well as the cultured single species of B. megaterium led to AMD like pathology in macaque. About 20 CFU of bacteria (in 20 μl PBS) from AH, VH, and B. megaterium cultures were injected subretinally and PBS was used as a control (illustrated in FIG. 6). […]"}}, "note": "“Also recorded” adds a separate entry of the source.", "data": [{"compound": "Cc1ncc([N+](=O)[O-])n1CCO", "note": "[metronidazole]", "values": [{"measurement": "fold less effective in controlling the growth of Bacillus megaterium (relative to neomycin)", "setting": "Bacillus megaterium [1]", "result": 10000, "unit": "fold"}]}, {"compound": "CN[C@H](CC(C)C)C(=O)N[C@H]1C(=O)N[C@@H](CC(N)=O)C(=O)N[C@H]2C(=O)N[C@H]3C(=O)N[C@H](C(=O)N[C@H](C(=O)O)c4cc(O)cc(O)c4-c4cc3ccc4O)[C@H](O)c3ccc(c(Cl)c3)Oc3cc2cc(c3O[C@@H]2O[C@H](CO)[C@@H](O)[C@H](O)[C@H]2O[C@H]2C[C@](C)(N)[C@H](O)[C@H](C)O2)Oc2ccc(cc2Cl)[C@H]1O", "note": "[vancomycin]", "values": [{"measurement": "size of drusenoid lesion in retinal tissue", "setting": "Bacillus megaterium [2]", "result": "reduce drusenoid lesion; also recorded: reduction in the size of drusenoid lesion"}]}, {"compound": "neomycin", "values": [{"measurement": "sensitivity of Bacillus megaterium to antimicrobial agents (control of growth in vitro)", "setting": "Bacillus megaterium [1]; 1*10^7 bacteria per culture, 37° C., 24 h", "result": "most sensitive; also recorded: best in vitro activity"}]}]}
